Test results as given in US20170009242A1, “CRISPR-Mediated Genome Engineering for Protein Depletion” (Whitehead Institute for Biomedical Research, priority 2015, published 2017).

Test system: CENP-I-AID-EGFP fusion protein
Assay: Auxin-induced depletion of endogenously tagged CENP-I-AID-EGFP, immunofluorescence microscopy
Format: cell-based
Conditions: osTIR1-expressing DLD-1 cells, interphase cell; IAA 500 μM for 12 hr; immunofluorescence (FIG. 3)
Procedure: DLD-1 cell lines were cultured as described previously in Dulbecco's Modified Eagle Medium (DMEM) supplemented with 10% fetal bovine serum (FBS), penicillin/streptomycin and 2 mM L-glutamine. Indole-3-acetic acid (IAA) (15148; Sigma) was dissolved in water and added to cells at a concentration of 500 μM for 12 hr. osTIR1-9Myc was cloned into the pBabe-puro vector and introduced into cell lines using retroviral delivery. Stable integrants were selected in puromycin and single clones isolated using single cell sorting. Western Blot analysis using an antibody raised against the Myc tag was used to determine the expression level of TIR1 protein in different clones. Rapidly growing clones with the high levels of osTIR1 expression were selected for further use. 2.5 ug each of pX330-GFP and the donor plasmid were co-transfected into osTIR1-9Myc expressing cells using Lipofectamine 2000 (Invitrogen) and OptiMEM according to the manufacturer's instructions. 24 h after transfection cells, were transferred to a 20 cm dish, and 48 h later cells were selected in […] G418 (Gibco) and 2 ug/ml puromycin to maintain the osTIR1. Colonies were harvested after 2 weeks and FACS sorted to isolate individual cells. […]

O=C(O)Cc1c[nH]c2ccccc12 [IAA, Indole-3-acetic acid]
CENP-I-AID-EGFP fusion protein at kinetochores upon addition of IAA: no longer observed
associated proteins such as CENP-T at kinetochores upon addition of IAA: lost from kinetochores
